In patent US6566120B2 (Massachusetts Institute of Technology, priority 1995, dated 2003):
Read-outs that look alike come from different tables or passages of the source.

Assays:
Actinomadura hydroxylase [1] = experiment: Effect of various factors on conversion of compactin to pravastatin in cell free extracts of Actinomadura; format: biochemical, Actinomadura ATCC 55678; settings: for CP: compactin remaining
Actinomadura hydroxylase [2] = experiment: Conversion of compactin to pravastatin by cell free extracts of Actinomadura: NADH versus NADPH as H+ donor; format: biochemical, Actinomadura ATCC 55678; settings: for PV: 160 μl cell free extract, 0.26 mM H+ donor, 0.23 mM compactin, 30° C.
Experimental: The HPLC conditions used were a 3 μm Lichrospher 100 RP-18 column (obtained from EM Separations Technology, Gibbstown, N.J.); Mobile Phase A: 2.5 g NaH2PO4 in 800 ml Milli-Q water, add 200 ml acetonitrile and 110 ml methanol, adjust pH to 2.5 with 85% H3PO4; Mobile Phase B: mixture of 200 ml water, 800 ml acetonitrile, 110 ml methanol and 1 ml 85% H3PO4; a 10 μl injection volume; a 1 ml/min. flow rate; and detection at UV 237 nm. The gradient table was: A cell free extract of Actinomadura was obtained by growing a 150 ml culture of Actinomadura ATCC 55678 for 2 days in YM medium as described in Example 1. The cells were harvested by centrifugation at 15,000 rpm for 30 min. […] Cells were harvested by centrifugation, washed twice with cold water and once with buffer A ([…] Tris-HCl buffer, pH 7.4, supplemented with 20% glycerol and 2 mM DTT). The cells were resuspended in 5 ml buffer A and stored at −80° C. The cell suspension was later thawed and disrupted in a French Press. The homogenate was centrifugated at 30,000 rpm for 60 min. The supernatant was stored at −80° C. as cell free extract. […] A control of buffer A without cell free extract was included. The amount of pravastatin was measured by HPLC as described in Example 1.

blood cholesterol level = experiment: Treating high blood cholesterol levels; format: in vivo; settings: human patient; 20 mg orally, pill, twice a day, 3 months
Experimental: This example illustrates a method for lowering the cholesterol level in a human with pravastatin derived from an Actinomadura hydroxylase that converts compactin to pravastatin. The patient is given 20 mg of this pravastatin orally, in the form of a pill, twice a day. Administration is carried out for a period of 3 months.

[3] = target: T1, 3-hydroxy-3-methylglutaryl (HMG)-CoA reductase (Homo sapiens, UniProt P04035); settings: have been reported; cited from earlier work
T1 sequence (P04035 1-888): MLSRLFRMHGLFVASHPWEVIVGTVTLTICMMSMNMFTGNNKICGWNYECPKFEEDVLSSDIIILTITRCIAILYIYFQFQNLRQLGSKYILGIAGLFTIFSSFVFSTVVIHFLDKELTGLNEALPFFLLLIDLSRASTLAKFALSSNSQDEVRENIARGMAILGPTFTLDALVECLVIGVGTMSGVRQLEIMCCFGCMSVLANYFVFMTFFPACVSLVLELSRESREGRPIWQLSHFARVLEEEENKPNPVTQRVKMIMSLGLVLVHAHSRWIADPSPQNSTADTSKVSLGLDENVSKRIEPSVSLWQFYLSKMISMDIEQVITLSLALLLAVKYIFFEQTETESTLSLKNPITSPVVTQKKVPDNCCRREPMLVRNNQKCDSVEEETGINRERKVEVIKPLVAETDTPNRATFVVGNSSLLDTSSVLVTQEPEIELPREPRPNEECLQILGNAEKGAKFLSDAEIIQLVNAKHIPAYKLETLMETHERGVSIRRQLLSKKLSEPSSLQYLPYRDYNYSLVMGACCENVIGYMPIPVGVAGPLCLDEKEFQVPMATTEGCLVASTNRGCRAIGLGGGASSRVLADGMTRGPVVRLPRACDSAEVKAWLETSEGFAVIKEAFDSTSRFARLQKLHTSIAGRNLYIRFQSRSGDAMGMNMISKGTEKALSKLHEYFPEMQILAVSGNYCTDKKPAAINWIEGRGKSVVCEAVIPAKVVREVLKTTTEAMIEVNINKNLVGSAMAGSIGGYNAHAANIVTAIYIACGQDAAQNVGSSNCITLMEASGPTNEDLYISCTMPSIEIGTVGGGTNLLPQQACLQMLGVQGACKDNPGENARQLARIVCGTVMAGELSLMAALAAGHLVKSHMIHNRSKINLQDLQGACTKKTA

fungi = settings: Serizawa et al., J. Antibiotics 36:887-891 (1983); cited from earlier work
strain 2966 = experiment: Antibiotic sensitivity of strain 2966 (taxonomic description); format: cell-based, Actinomadura
Source text: Description of strain 2966: Cell wall analysis: Whole cell hydrolysates contain meso-diaminopimelic acid (DAP) and madurose. Morphology: Strain 2966 produces an extensively branched, non-fragmenting and dense substrate mycelium. The aerial mycelium is very well developed on yeast malt extract agar, oatmeal agar, N-Z Amine with soluble starch and glucose agar and absent on ISP-4, ISP-5 and ISP-7 media. Spore chains noticeably exceed the diameter of the hyphae which is characteristic for Actinomadura strains and distinguish them from Streptomyces. The presence of meso-DAP is another distinguishing feature. Spores of strain 2966 have a round shape unlike glycomyces species. No special morphological structures were observed either on the substrate mycelium or aerial mycelium. The color of the aerial mycelium is white and yellow-brown for substrate mycelium. No soluble or melanin pigments are formed. Mycelium is not sensitive to pH changes. Carbon source utilization is very poor for glucose, arabinose, D-fructose, D-mannitol, raffinose, rhamnose, sucrose, xylose, galactose and there is only a trace of growth with i-inositol, salicin or on control agar. […] Of the meso-DAP-containing actinomycetes, only Actinomadura species have non-fragmenting mycelium and display the same type of aerial mycelium formation and sporulation as strain 2966.

[4] = Actinomadura cell free extracts, alone or in combination
[5] = Table 10, CFE Uninduced, combination MgCl2 2.4 mM, ATP 1.9 mM, ascb 12 mM, ATP alone 3.8 mM, ascb alone 23 mM
[6] = Table 9, 60 min, 0.72 mM NADPH, 0.2 mM compactin, 2.4 mM MgCl2, 0.09 mM FeSO4, 0.1 mM FeCl3, 1.9 mM ATP and 12 mM ascorbic acid
[7] = Table 9, 60 min, 0.72 mM NADPH, 0.2 mM compactin, same factor concentrations

Nc1ncnc2c1ncn2[C@@H]1O[C@H](COP(=O)(O)OP(=O)(O)OP(=O)(O)O)[C@@H](O)[C@H]1O [ATP]
stimulation of the enzymatic activity of the agent (conversion of compactin to pravastatin) (Actinomadura hydroxylase [1]; [4]): stimulate conversion of compactin to pravastatin
PV (μg/min/g) (Actinomadura hydroxylase [1]; [5]): 17 µg/min/g
PV (μg/ml) (Actinomadura hydroxylase [1]; [5]): 7.5 µg/mL

[Cl-].[Cl-].[Co+2] [CoCl2]
stimulation of the enzymatic activity of the agent (conversion of compactin to pravastatin) (Actinomadura hydroxylase [1]): do not stimulate enzymatic activity

O=S(=O)([O-])[O-].[Cu+2] [CuSo4]
stimulation of the enzymatic activity of the agent (conversion of compactin to pravastatin) (Actinomadura hydroxylase [1]; [4]): do not stimulate enzymatic activity

Cc1cc2nc3c(=O)[nH]c(=O)nc-3n(C[C@H](O)[C@H](O)[C@H](O)COP(=O)(O)OP(=O)(O)OC[C@H]3O[C@@H](n4cnc5c(N)ncnc54)[C@H](O)[C@@H]3O)c2cc1C [FAD]
stimulation of the enzymatic activity of the agent (conversion of compactin to pravastatin) (Actinomadura hydroxylase [1]): do not stimulate enzymatic activity

Cc1cc2nc3c(=O)[nH]c(=O)nc-3n(C[C@H](O)[C@H](O)[C@H](O)COP(=O)(O)O)c2cc1C [FMN]
stimulation of the enzymatic activity of the agent (conversion of compactin to pravastatin) (Actinomadura hydroxylase [1]): do not stimulate enzymatic activity

[Cl][Fe]([Cl])[Cl] [FeCl3]
PV (μg/ml) (Actinomadura hydroxylase [1]; [6]): 3.3 µg/mL
PV (μg/min/g) (Actinomadura hydroxylase [1]; [7]): 6.6 µg/min/g
CP (Actinomadura hydroxylase [1]; [7]): 57.9 µg/mL

O=S(=O)([O-])[O-].[Fe+2] [FeSO4]
PV (μg/ml) (Actinomadura hydroxylase [1]; [6]): 2.3 µg/mL
PV (μg/min/g) (Actinomadura hydroxylase [1]; [7]): 6.4 µg/min/g
CP (Actinomadura hydroxylase [1]; [7]): 64.3 µg/mL

[Cl-].[Cl-].[Mg+2] [MgCl2]
stimulation of the enzymatic activity of the agent (conversion of compactin to pravastatin) (Actinomadura hydroxylase [1]; [4]): stimulate conversion of compactin to pravastatin
PV (μg/ml) (Actinomadura hydroxylase [1]; [6]): 4.4 µg/mL
PV (μg/min/g) (Actinomadura hydroxylase [1]; [7]): 8.7 µg/min/g
CP (Actinomadura hydroxylase [1]; [7]): 60.2 µg/mL

NC(=O)C1=CN([C@@H]2O[C@H](COP(=O)(O)OP(=O)(O)OC[C@H]3O[C@@H](n4cnc5c(N)ncnc54)[C@H](O)[C@@H]3O)[C@@H](O)[C@H]2O)C=CC1 [NADH]
PV (Actinomadura hydroxylase [2]; 5 hours): 2.8 µg/mL
PV (Actinomadura hydroxylase [2]; 21 hours): 2.8 µg/mL

NC(=O)C1=CN([C@@H]2O[C@H](COP(=O)(O)OP(=O)(O)OC[C@H]3O[C@@H](n4cnc5c(N)ncnc54)[C@H](OP(=O)(O)O)[C@@H]3O)[C@@H](O)[C@H]2O)C=CC1 [NADPH]
PV (Actinomadura hydroxylase [2]; 6 hours): 12.8 µg/mL
PV (Actinomadura hydroxylase [2]; 21 hours): 11.9 µg/mL
enzymatic conversion of compactin to pravastatin, comparison of H+ donors (Actinomadura hydroxylase [2]; cell free extracts): better with NADPH as a H^+ donor than with NADH

[Cl][Ni][Cl] [NiCl2]
stimulation of the enzymatic activity of the agent (conversion of compactin to pravastatin) (Actinomadura hydroxylase [1]; [4]): do not stimulate enzymatic activity

O=C1O[C@H]([C@@H](O)CO)C(O)=C1O [ascb, ascorbic acid]
stimulation of the enzymatic activity of the agent (conversion of compactin to pravastatin) (Actinomadura hydroxylase [1]; [4]): stimulate conversion of compactin to pravastatin
PV (μg/min/g) (Actinomadura hydroxylase [1]; [5]): 18 µg/min/g
PV (μg/ml) (Actinomadura hydroxylase [1]; [5]): 8.3 µg/mL

CC[C@H](C)C(=O)O[C@H]1C[C@H](O)C=C2C=C[C@H](C)[C@H](CC[C@@H](O)C[C@@H](O)CC(=O)O)[C@H]21 [pravastatin]
blood cholesterol level (blood cholesterol level): reduction of the patient's blood cholesterol level
inhibition of HMG-CoA reductase [3]: competitive inhibitors

O=C(O)CCC(=O)C(=O)O [∝-ketoglutarate]
stimulation of the enzymatic activity of the agent (conversion of compactin to pravastatin) (Actinomadura hydroxylase [1]; [4]): do not stimulate enzymatic activity

compactin
activity against fungi (fungi): anti-fungal activity

neomycin
sensitivity of strain 2966 to antibiotic (strain 2966): inhibited

penicillin
sensitivity of strain 2966 to antibiotic (strain 2966): resistance
